Measured values as given in patent publication US20080044436A1, “Method for Screening and Compositions for Treating Cancers” (priority 2004, published 2008).
Each block holds one molecule with its values, some of them ahead of it.

Target: T1, PR (Homo sapiens, UniProt P06401)
T1 construct: made in house; host or cells: PR-B: rabbit reticulocyte lysate / T7 RNA polymerase in vitro translation (Promega)
T1 sequence (P06401 1-933): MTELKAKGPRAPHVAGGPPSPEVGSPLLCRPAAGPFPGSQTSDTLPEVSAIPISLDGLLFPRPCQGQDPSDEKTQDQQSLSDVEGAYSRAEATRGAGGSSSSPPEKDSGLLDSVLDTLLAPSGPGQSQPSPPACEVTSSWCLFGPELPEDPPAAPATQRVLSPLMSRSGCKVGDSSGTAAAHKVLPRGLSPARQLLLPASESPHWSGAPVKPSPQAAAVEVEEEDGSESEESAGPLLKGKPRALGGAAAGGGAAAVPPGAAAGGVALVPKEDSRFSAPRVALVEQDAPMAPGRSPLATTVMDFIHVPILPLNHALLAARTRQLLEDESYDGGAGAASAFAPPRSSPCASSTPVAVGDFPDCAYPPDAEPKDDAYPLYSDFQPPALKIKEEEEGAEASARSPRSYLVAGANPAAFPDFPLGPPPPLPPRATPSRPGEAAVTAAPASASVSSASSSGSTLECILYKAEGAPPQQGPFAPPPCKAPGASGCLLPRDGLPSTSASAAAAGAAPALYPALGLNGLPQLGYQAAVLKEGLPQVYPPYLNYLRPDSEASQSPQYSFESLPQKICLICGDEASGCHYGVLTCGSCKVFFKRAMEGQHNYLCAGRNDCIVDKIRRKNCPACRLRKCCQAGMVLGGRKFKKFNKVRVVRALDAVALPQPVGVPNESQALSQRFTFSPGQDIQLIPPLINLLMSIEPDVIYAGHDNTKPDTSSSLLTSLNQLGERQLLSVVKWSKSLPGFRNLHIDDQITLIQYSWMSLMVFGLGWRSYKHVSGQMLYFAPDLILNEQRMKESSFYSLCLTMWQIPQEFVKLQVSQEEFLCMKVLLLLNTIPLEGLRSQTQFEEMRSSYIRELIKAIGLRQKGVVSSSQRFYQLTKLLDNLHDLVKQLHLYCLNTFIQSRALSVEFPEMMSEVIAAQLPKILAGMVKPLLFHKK
T1 sequence (Q96PN7 1-1200 partner): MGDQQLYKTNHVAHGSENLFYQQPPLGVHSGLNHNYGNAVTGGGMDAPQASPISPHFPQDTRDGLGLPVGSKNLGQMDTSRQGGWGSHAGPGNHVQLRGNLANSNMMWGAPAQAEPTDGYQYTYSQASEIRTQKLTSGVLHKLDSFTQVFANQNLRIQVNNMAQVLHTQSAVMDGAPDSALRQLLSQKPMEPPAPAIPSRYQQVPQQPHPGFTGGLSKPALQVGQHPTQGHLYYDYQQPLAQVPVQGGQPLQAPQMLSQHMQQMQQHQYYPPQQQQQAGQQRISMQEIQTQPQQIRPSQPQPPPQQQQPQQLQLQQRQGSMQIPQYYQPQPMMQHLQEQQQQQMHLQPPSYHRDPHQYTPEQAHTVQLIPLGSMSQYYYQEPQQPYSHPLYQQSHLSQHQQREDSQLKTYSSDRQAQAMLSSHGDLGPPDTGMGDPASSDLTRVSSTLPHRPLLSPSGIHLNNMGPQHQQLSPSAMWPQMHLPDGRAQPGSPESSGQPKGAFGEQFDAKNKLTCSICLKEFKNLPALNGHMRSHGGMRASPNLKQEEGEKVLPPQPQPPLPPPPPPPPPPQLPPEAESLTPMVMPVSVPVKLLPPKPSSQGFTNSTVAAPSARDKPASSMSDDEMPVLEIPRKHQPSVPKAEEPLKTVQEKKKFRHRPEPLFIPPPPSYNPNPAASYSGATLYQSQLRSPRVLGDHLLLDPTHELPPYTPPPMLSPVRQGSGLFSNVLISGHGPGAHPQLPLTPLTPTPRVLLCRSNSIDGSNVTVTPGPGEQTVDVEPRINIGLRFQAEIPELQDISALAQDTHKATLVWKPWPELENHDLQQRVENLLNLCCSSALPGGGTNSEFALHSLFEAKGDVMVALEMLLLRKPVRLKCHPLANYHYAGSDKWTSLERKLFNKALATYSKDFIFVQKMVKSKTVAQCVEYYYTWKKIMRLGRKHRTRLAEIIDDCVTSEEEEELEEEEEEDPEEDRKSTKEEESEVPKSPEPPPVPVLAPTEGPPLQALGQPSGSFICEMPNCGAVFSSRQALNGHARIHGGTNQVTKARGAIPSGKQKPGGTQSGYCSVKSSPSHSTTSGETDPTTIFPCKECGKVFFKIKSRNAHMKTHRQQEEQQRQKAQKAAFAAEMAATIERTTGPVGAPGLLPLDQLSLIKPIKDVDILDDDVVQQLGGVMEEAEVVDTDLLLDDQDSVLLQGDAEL
Assay: GST pull-down, TReP-132 and PR
Type: binding
Procedure: FIG. 14D left: GST-TReP-132 immobilized on glutathione-Sepharose was incubated with ^35-[S]-methionine-labelled PR, in the absence or with increasing concentrations of progesterone (0-10 μM). Specific interactions were analyzed by comparison with the results obtained by incubating GST with ^35-[S]-PR, in the presence of 100 μM progesterone (GST).
FIG. 14D right: GST-TReP-132 wt, GST-TReP-132 ml (mutated at the LRQLL site) and GST-TReP-132 m2 (mutated at the LEMLL site) were analyzed for interaction with ^35-[S]-PR as described earlier, in the presence of 10 μM progesterone. Input PR: 1/10th of the radiolabelled PR level used in the experiments.
In order to evaluate the interaction of TReP-132, Sp1, ER and PR, the wt and mutant GST-TReP-132 fusion proteins were expressed, then immobilized on glutathione-Sepharose as described (Frangioni and Neel, 1993; Monte et al., 1998). The ^35S-[Sp1], ^35S-[ER] and ^35S-[PR-B] proteins were synthesized in vitro using a rabbit reticulocyte lysate and T7 RNA polymerase system as directed by the manufacturer (Promega Corporation, Madison, Wis.). Proteins which bound, then detached from the Sepharose after being heated to boiling in SDS buffer were then separated on a 10% SDS-PAGE gel. The gels were stained with Coomassie blue, dried and autoradiographed.

TReP-132/PR interaction in presence of progesterone (GST-TReP-132 and 35S-PR, progesterone 0-10 μM): increased in a dose-dependent manner
Molecule: CC(=O)[C@H]1CC[C@H]2[C@@H]3CCC4=CC(=O)CC[C@]4(C)[C@H]3CC[C@]12C [progesterone, reference compound]

interaction with PR (GST pull-down with 35S-PR): interact
B1: TReP-132: Transcriptional Regulating Protein of 132 kDa, polypeptide comprising SEQ ID NO: 2; here expressed in cells from vectors (protein)
chain: T1 sequence (Q96PN7 1-1200 partner)
